The source made the active and inactive calls.
Columns and labels:
[1] = inhibitors of intracellular T. cruzi replication, confirmation, NIH3T3 host cells, beta-gal luminescence (AID 2044); type: functional, cell-based;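 further: intracellular parasites grown in NIH/3T3 mouse fibroblasts as host cells; luminescent beta-galactosidase reporter signal from transgenic T. cruzi replicating inside host cells; inhibitors lower the luminescence signal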
[2] = cytotoxicity toward NIH3T3 fibroblasts, dose response, counter-screen, cell-based, ATP luminescence, mouse fibroblasts (AID 2010); type: functional;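 further: cells exposed to compound for about 90 hours before reading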
[3] = Luminescence Cell-Based Dose Retest to Confirm Inhibitors of Cancer Stem Cells. [Related pubchem assays (depositor defined):AID2717, AID2721]; type: functional; conditions: Homo sapiens
[4] = target: T1, Heat shock factor protein 1 (Mus musculus, UniProt P38532); assay: inhibition of MG132-induced HSE-luciferase signal, confirmation, cell-based, NIH3T3, luminescence, dose retest (AID 2382); type: functional;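 further: NIH3T3 fibroblasts with HSF1-driven luciferase reporter stressed by proteasome inhibitor MG132; luminescence from HSF1-driven luciferase expression after 8 hours of MG132 stress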
T1 sequence (P38532 whole entry): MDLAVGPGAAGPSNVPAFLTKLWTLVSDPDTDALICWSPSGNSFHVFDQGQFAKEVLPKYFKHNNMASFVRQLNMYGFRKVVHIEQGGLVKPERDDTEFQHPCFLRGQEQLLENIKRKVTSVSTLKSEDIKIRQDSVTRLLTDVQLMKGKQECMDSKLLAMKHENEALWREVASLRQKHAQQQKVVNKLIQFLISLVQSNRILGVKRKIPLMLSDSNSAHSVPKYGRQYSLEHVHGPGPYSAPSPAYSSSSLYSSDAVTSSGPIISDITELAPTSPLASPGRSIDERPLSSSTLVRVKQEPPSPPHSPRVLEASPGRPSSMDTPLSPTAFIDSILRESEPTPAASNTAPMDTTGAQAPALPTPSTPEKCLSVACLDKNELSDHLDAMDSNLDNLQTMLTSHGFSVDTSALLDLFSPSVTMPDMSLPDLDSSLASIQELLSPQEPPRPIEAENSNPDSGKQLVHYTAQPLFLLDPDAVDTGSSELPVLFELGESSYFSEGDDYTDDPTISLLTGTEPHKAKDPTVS

[5] = target: Cytochrome P450 2C19 (Homo sapiens, UniProt P33261); assay: Cytochrome panel assay with activity outcomes. Panel member name: p450-cyp2c19 Compounds with AC50 equal or less than 10 uM are considered active; type: functional
Cytochrome P450 2C19, sequence (P33261 whole entry): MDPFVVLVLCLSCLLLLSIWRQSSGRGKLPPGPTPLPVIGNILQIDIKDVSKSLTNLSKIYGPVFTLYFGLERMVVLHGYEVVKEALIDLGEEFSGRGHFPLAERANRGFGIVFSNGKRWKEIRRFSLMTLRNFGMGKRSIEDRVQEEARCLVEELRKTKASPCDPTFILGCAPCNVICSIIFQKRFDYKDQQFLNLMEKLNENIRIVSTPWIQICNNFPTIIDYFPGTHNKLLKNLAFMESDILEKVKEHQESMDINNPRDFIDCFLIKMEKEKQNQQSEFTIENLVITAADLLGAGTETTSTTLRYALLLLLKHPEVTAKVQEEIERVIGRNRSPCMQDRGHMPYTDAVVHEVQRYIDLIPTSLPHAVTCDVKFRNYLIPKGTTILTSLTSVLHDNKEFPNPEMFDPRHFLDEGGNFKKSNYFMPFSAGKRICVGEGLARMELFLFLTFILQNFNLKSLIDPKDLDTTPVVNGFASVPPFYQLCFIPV

[6] = inhibitors of firefly luciferase expression or activity, dose response, H4 neuroglioma cells, luminescence (AID 1990); type: functional, cell-based
[7] = Luminescence Cell-Based Dose Response HTS to Identify Inhibitors of 5'UTR Stem-Loop Driven Prion Protein mRNA Translation in H4 Neuroglioblastoma Cells. [Related pubchem assays: 1827 (Project Summary), 1813 (Primary HTS)]; type: functional
[8] = inhibitors of SNCA 5'UTR-driven reporter translation, confirmation, H4 neuroglioma cells, luminescence (AID 1988); type: functional, cell-based
[9] = system: Streptococcus sp. 'group A'; assay: growth inhibition of control SK(-) GAS strain, dose response, counter-screen for streptokinase expression inhibitor project, luminescence, kanamycin, BacTiterGlo, confirmation (AID 1900); type: functional, organism-based
[10] = target: T2, Streptokinase A (Streptococcus pyogenes serotype M1, UniProt P10520); assay: S. pyogenes streptokinase expression inhibitors, potency, dose response, plasminogen activation absorbance, OD405 (AID 1914); type: functional, Streptococcus pyogenes M1 GAS;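 further: secreted streptokinase activity via plasminogen activation per viability signal from cell pellet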
T2 sequence (P10520 whole entry): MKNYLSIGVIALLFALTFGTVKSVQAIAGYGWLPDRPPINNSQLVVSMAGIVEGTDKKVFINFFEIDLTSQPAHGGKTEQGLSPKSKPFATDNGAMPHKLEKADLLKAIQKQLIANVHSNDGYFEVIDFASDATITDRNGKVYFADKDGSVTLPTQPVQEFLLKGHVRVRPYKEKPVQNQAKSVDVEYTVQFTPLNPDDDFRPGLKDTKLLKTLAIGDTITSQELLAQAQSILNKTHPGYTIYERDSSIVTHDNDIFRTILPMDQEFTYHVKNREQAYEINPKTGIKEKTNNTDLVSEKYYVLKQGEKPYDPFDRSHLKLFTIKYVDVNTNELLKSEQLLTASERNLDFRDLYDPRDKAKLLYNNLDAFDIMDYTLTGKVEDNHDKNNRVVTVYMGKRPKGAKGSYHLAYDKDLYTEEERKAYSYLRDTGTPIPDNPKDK

[11] = system: Streptococcus; assay: Group A Streptococcus viability loss, dose response, counter-screen for streptokinase expression inhibitor project, luminescence, BacTiterGlo (AID 1915); type: functional, organism-based;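 further: potency for reduction of bacterial viability or growth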

| Compound | EC50 [1] | EC50 [2] | EC50 [4] | other results |
| --- | --- | --- | --- | --- |
| c1cnc2ccc(C(c3nnnn3C3CCCCC3)N3CCN(C4CCCCC4)CC3)cc2c1 (centres undefined) | 8.47 µM (active) | 4.37 µM (active) | – | – |
| Cc1cc(Nc2nc(Cl)c(Cl)cc2Cl)n(-c2ccccc2)n1 | – | – | – | AC50 [3]: 3.95 µM (active) |
| COc1ccc([C@@H]2C[C@@H](c3ccccc3)Oc3c(C)ccc(C(C)C)c32)cc1 | – | – | > 195 µM (not active) | – |
| O=C(NCc1ccco1)C1CCN(S(=O)(=O)c2cccc([N+](=O)[O-])c2)CC1 | – | – | > 195 µM (not active) | – |
| CCCCCSc1nc(C)c(CC(=O)O)c(O)n1 | – | – | > 195 µM (not active) | – |
| Cn1c(CCC(=O)Nc2ccc(N3CCOCC3)cc2)nc(=O)c2ccccc21 | – | – | – | AC50 ([5]; read-out: AC50): 35.5 µM (inconclusive) |
| O=C(Nc1cccc(Cl)c1)Nc1ccccc1-n1ccnc1 | 0.461 µM (active) | > 60 µM (not active) | – | – |
| Cc1ccc(-n2nc3c(N4CCC(C(=O)NCCc5cccs5)CC4)nnc(C)c3c2C)cc1 | – | – | – | EC50 [6]: 19.2 µM (active); EC50 [7]: > 120 µM (not active) |
| CC(C)CCNC(=O)C1CCC(CNS(=O)(=O)c2cccc3nsnc23)CC1 (centres undefined) | > 30 µM (not active) | > 30 µM (not active) | – | – |
| COc1ccc(/C=C/C(=O)c2ccccc2)cc1Cn1nnc2ccccc21 | – | – | – | AC50 [3]: 4.11 µM (active) |
| COc1ccc(C(=O)C2CCCN(Cc3sc(N4CCCC4)nc3Cl)C2)c(OC)c1 (centres undefined) | 0.927 µM (active) | > 60 µM (not active) | – | – |
| C[C@@]12CC[C@H](O)C[C@@H]1CC[C@H]1[C@@H]2C[C@@H](O)[C@]2(C)[C@@H](C3=CC(=O)OC3)CC[C@]12O | – | – | – | AC50 [5]: inconclusive |
| CCOc1ccc(OCC)c(NC(=O)CSc2nc3ccccc3c(=O)n2C)c1 | – | – | – | EC50 [6]: 29.5 µM (active); EC50 [7]: 71.4 µM (active); EC50 [8]: 69.6 µM (active) |
| Fc1ccc(CO/N=C/C2=C(Cl)c3ccccc3CC2)cc1 | – | – | > 195 µM (not active) | EC50 [9]: 6.39 µM (active); EC50 [10]: 13.5 µM (active); EC50 [11]: > 150 µM (not active) |
| CCc1c(-c2ccccc2)nc2sc3c(c2c1N)CCCC3 | 2.01 µM (active) | > 60 µM (not active) | – | – |
| CC(C)c1ccccc1OCC(O)CN(CC(O)COc1cccc2ccccc12)C(C)C (centres undefined) | 3.45 µM (active) | > 30 µM (not active) | – | EC50 [9]: 4.05 µM (active); EC50 [11]: 7.04 µM (active); AC50 [3]: 2.82 µM (active) |
| CC(C)(CNC(=O)c1ccccc1)CNC1=NS(=O)(=O)c2ccccc21 | – | – | – | EC50 [9]: > 150 µM (not active); EC50 [10]: > 150 µM (not active); EC50 [11]: > 150 µM (not active) |
| CCCOc1ccc(Cn2c(=O)oc3ccc(C)cc32)cc1OC | – | – | > 195 µM (not active) | – |
| Cc1cc(C)cc(N2C(=O)CN(Cc3ccccc3)C2=S)c1 | – | – | > 195 µM (not active) | – |

| Compound | EC50 [1] | EC50 [2] | EC50 [4] | other results |
| --- | --- | --- | --- | --- |
| c1ccc(CCn2nnnc2C(c2cccnc2)N2CCN(c3ccccc3)CC2)cc1 (centres undefined) | 0.263 µM (active) | 4.77 µM (active) | – | – |
| CC(C)Oc1cccc(C(=O)NC(=S)Nc2ccccc2)c1 | – | – | > 195 µM (not active) | – |
| CC1C=Cc2ccccc2N1C(=O)c1ccccc1 (centres undefined) | – | – | > 195 µM (not active) | – |
| COc1cc(C(=O)N2CCN(C(=O)CC(C)C)CC2)cc(OC)c1OC | – | – | 9.31 µM (active) | – |
| CCCOC(=O)c1ccc(Oc2c(-c3ccc(OCC)cc3O)n[nH]c2C)cc1 | – | – | – | EC50 [10]: > 150 µM (not active) |
| CC1CCCN(CC(O)COCC2COc3ccccc3O2)C1 (centres undefined) | – | – | – | AC50 ([5]; read-out: AC50): 5.01 µM (inconclusive) |
| COc1cc(CNc2ccc(CNc3nc[nH]n3)cc2)ccc1OCc1ccccc1 | – | – | – | AC50 [3]: 2.25 µM (active) |
| CN(Cc1ccccc1)Cc1c[nH]c2ccccc12 | 0.972 µM (active) | > 60 µM (not active) | – | – |
| Cc1ccc(S(=O)(=O)N(C)c2ccc(OCc3cccc(C)c3)cc2)cc1 | – | – | – | AC50 [3]: 0.898 µM (active) |
| COc1ccc2nc(N=C(N)NC(=S)Nc3c(C)cccc3C)nc(C)c2c1 | – | – | – | EC50 [10]: 42 µM (inconclusive) |
| Cc1ccc(C(C)C)c(OCC(=O)NC2CCN(C)CC2)c1 | 1.21 µM (active) | > 60 µM (not active) | – | – |
| COc1ccc2nc(N=C(N)N=C(S)Nc3c(C)cccc3C)nc(C)c2c1 | – | – | – | EC50 [9]: 21.7 µM (active); EC50 [11]: > 150 µM (not active) |
| COc1ccc(-c2csc(N(CCc3ccc(OC)c(OC)c3)C(=O)COc3ccccc3)n2)cc1 | – | – | > 195 µM (not active) | – |
| O=C(O)c1ccc(Cl)c(S(=O)(=O)N(Cc2ccccc2)c2ccc(F)cc2)c1 | – | – | – | AC50 [3]: 31.2 µM (active) |
| COc1ccc(OC)c(N(CC(=O)Nc2ccccc2)S(C)(=O)=O)c1 | – | – | > 195 µM (not active) | – |
| O=C(c1cccc(S(=O)(=O)N2CCOCC2)c1)N(Cc1nnc(-c2ccccc2Cl)o1)C1CC1 | – | – | > 195 µM (not active) | – |
| CCC(C)Oc1cc(-c2ccnc(Nc3cccc(Cl)c3)n2)ccn1 (centres undefined) | 1.7 µM (active) | 7.53 µM (active) | – | – |
| Cc1ccc2nc3c(cc(S(=O)(=O)c4ccccc4)c(=N)n3Cc3ccco3)c(=O)n2c1 | 3 µM (active) | > 60 µM (not active) | – | – |
| CCN=C(S)NC1CC2CCCC(C1)N2Cc1ccco1 (centres undefined) | – | – | – | AC50 ([5]; read-out: AC50): 14.1 µM (inconclusive) |

| Compound | EC50 [1] | EC50 [2] | EC50 [4] | other results |
| --- | --- | --- | --- | --- |
| C/C(=N\NC(=O)CN1CCN(Cc2ccccc2)CC1)c1cccs1 | – | – | > 195 µM (not active) | – |
| O=C(Nc1cccc(S(=O)(=O)c2cccc(NC(=O)c3ccco3)c2)c1)c1ccco1 | 0.869 µM (active) | > 60 µM (not active) | – | – |
| CC(=O)c1cccc(NC(=O)C2CC(=O)N(CCc3ccccc3)C2)c1 (centres undefined) | – | – | > 195 µM (not active) | – |
| CCCc1nc2ccccc2c(C(=O)OCC(=O)Nc2ccc(S(=O)(=O)N3CCOCC3)cc2)c1CC | – | – | – | EC50 [9]: 18.1 µM (active); EC50 [10]: 26 µM (active); EC50 [11]: 52.8 µM (active); AC50 [3]: 4.04 µM (active) |
| N#C/C(=C(/O)COc1ccccc1)c1nc2ccccc2s1 | – | – | – | EC50 [9]: 26.7 µM (active); EC50 [10]: 7.55 µM (active); EC50 [11]: > 150 µM (not active) |
| CCC(C)n1c(C)nc2c(c1=O)c1nc3ccccc3nc1n2CCC1=CCCCC1 (centres undefined) | 3.7 µM (active) | > 60 µM (not active) | – | – |
| Cc1cc2c(c(=O)n1Cc1ccc3c(c1)OCO3)C(c1cccnc1)C(C#N)=C(N)O2 (centres undefined) | 1.94 µM (active) | > 60 µM (not active) | – | – |
| CCOC(=O)C1(Cc2ccccc2)CCCN(CCCn2cccn2)C1 (centres undefined) | – | – | > 195 µM (not active) | – |
| Cc1ccc(OCC(=O)Nc2ccccc2C(=O)N2CCCCC2)cc1 | – | – | > 195 µM (not active) | – |
| CCO/C(O)=C(/C=N/c1ccccc1)[N+](=O)[O-] | – | – | – | AC50 ([5]; read-out: AC50): 14.1 µM (inconclusive) |
| Cc1ccc(CCNC(=O)CN=C(S)N(Cc2ccccc2)Cc2cccnc2)cc1 | 1.28 µM (active) | > 60 µM (not active) | – | – |
| Cc1ccc(OCCCCN2CCCCC2)c(Br)c1 | 2.16 µM (active) | > 60 µM (not active) | – | – |
| CC(C)c1ccc2c(c1)c(SC(C)(C)C)c(CC(C)(C)C(=O)O)n2Cc1ccc(Cl)cc1 | – | – | – | EC50 [9]: 1.07 µM (active); EC50 [10]: 1.24 µM (active) |
| COc1ccc(OC)c(NC(=O)C2CCCN(S(=O)(=O)c3c(C)nn(C)c3C)C2)c1 (centres undefined) | – | – | > 195 µM (not active) | – |
| COc1ccc(CNC(=O)CCCNC(=O)c2ccc(Cl)cc2)cc1OC | – | – | > 195 µM (not active) | – |
| Cc1ccc2c(c1)C1CN(C)CCC1N2C(=O)c1cccc(S(=O)(=O)N2CC(C)CC(C)C2)c1 (centres undefined) | 0.216 µM (active) | > 30 µM (not active) | – | – |
| Cc1ccc(NC(=O)N(Cc2cccnc2)Cc2ccco2)cc1C | 1.39 µM (active) | > 60 µM (not active) | – | – |
| O=C(OCc1ccc(COC(=O)c2ccc(O)cc2)cc1)c1ccc(O)cc1 | – | – | – | EC50 [9]: 5.67 µM (active); EC50 [10]: > 150 µM (not active); EC50 [11]: 8.51 µM (active) |
